Results taken from the supplement of paper PMC10307832.

Key:
Assay in all cases: relative viability (nuclei count vs DMSO), 5 days (fraction); higher = more cells survive
NCI-H1944 = system: NCI-H1944
Summary of the method: (§1)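 A single step with final 0.05% Triton X-100, 1% formaldehyde and 1 ug/ml Hoechst fixed the cells and stained nuclei 5 days after treatment. Lung cancer cell lines in 1536-well plates had been treated by pin tool the day after seeding with one drug alone or a fixed anchor-drug dose plus five library-drug doses (not always all listed) in √10 steps, and nuclei were counted on 4× images. Relative viability is the ratio of nuclei in treated wells to nuclei in vehicle wells, taken as the median of duplicate plates.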

HCC-366 = system: HCC-366
Summary of the method: as §1

COR-L23 = system: COR-L23
Summary of the method: as §1

NCI-H2023 = system: NCI-H2023
Summary of the method: as §1

NCI-H2405 = system: NCI-H2405
Summary of the method: as §1

NCI-H23 = system: NCI-H23
Summary of the method: as §1

NCI-H1993 = system: NCI-H1993
Summary of the method: as §1

NCI-H358 = system: NCI-H358
Summary of the method: as §1

LC-2-ad = system: LC-2-ad
Summary of the method: as §1

ABC-1 = system: ABC-1
Summary of the method: as §1

NCI-H838 = system: NCI-H838
Summary of the method: as §1

SK-LU-1 = system: SK-LU-1
Summary of the method: as §1

HOP-62 = system: HOP-62
Summary of the method: as §1

NCI-H1395 = system: NCI-H1395
Summary of the method: as §1

NCI-H2126 = system: NCI-H2126
Summary of the method: as §1

ChaGo-K-1 = system: ChaGo-K-1
Summary of the method: as §1

NCI-H1793 = system: NCI-H1793
Summary of the method: as §1

HCC-78 = system: HCC-78
Summary of the method: as §1

EMC-BAC-2 = system: EMC-BAC-2
Summary of the method: as §1

HARA = system: HARA
Summary of the method: as §1

HCC-15 = system: HCC-15
Summary of the method: as §1

NCI-H2228 = system: NCI-H2228
Summary of the method: as §1

O=c1cc(N2CCOCC2)oc2c(-c3cccc4c3sc3ccccc34)cccc12 + O=C(CCCCCCC(=O)Nc1ccccc1)NO [Vorinostat] (partner 1 µM) showed a relative viability (NCI-H1944; first compound 0.01 µM) of 0.529, a relative viability (NCI-H1944; first compound 0.03162 µM) of 0.612 and a relative viability (NCI-H1944; first compound 0.1 µM) of 0.503. The relative viability (NCI-H1944; first compound 0.3162 µM) was 0.48, the relative viability (NCI-H1944; first compound 1 µM) was 0.616 and the relative viability (HCC-366; first compound 0.01 µM) was 0.386. For the same molecule, the relative viability (HCC-366; first compound 0.03162 µM) was 0.362, the relative viability (HCC-366; first compound 0.1 µM) was 0.339 and the relative viability (HCC-366; first compound 0.3162 µM) was 0.395. For the same molecule, the relative viability (HCC-366; first compound 1 µM) was 0.371, the relative viability (COR-L23; first compound 0.01 µM) was 0.578 and the relative viability (COR-L23; first compound 0.03162 µM) was 0.503. It also gave a relative viability (COR-L23; first compound 0.1 µM) of 0.473, a relative viability (COR-L23; first compound 0.3162 µM) of 0.424 and a relative viability (COR-L23; first compound 1 µM) of 0.54. It also gave a relative viability (NCI-H2023; first compound 0.01 µM) of 0.733, a relative viability (NCI-H2023; first compound 0.03162 µM) of 0.76 and a relative viability (NCI-H2023; first compound 0.1 µM) of 0.786. For the same molecule, the relative viability (NCI-H2023; first compound 0.3162 µM) was 0.55, the relative viability (NCI-H2023; first compound 1 µM) was 0.677 and the relative viability (NCI-H2405; first compound 0.01 µM) was 1.01. It also gave a relative viability (NCI-H2405; first compound 0.03162 µM) of 1.04, a relative viability (NCI-H2405; first compound 0.1 µM) of 1.04 and a relative viability (NCI-H2405; first compound 0.3162 µM) of 1.01. For the same molecule, the relative viability (NCI-H2405; first compound 1 µM) was 0.736, the relative viability (NCI-H23; first compound 0.01 µM) was 0.555 and the relative viability (NCI-H23; first compound 0.03162 µM) was 0.68. The relative viability (NCI-H23; first compound 0.3162 µM) was 0.795, the relative viability (NCI-H23; first compound 1 µM) was 0.537 and the relative viability (NCI-H1993; first compound 0.01 µM) was 1.21. For the same molecule, the relative viability (NCI-H1993; first compound 0.03162 µM) was 0.769, the relative viability (NCI-H1993; first compound 0.1 µM) was 0.94 and the relative viability (NCI-H1993; first compound 0.3162 µM) was 0.851. It also gave a relative viability (NCI-H1993; first compound 1 µM) of 0.697, a relative viability (NCI-H358; first compound 0.01 µM) of 0.676 and a relative viability (NCI-H358; first compound 0.03162 µM) of 0.619. The relative viability (NCI-H358; first compound 0.1 µM) was 0.75, the relative viability (NCI-H358; first compound 0.3162 µM) was 0.702 and the relative viability (NCI-H358; first compound 1 µM) was 0.689. The relative viability (LC-2-ad; first compound 0.01 µM) was 0.703, the relative viability (LC-2-ad; first compound 0.03162 µM) was 0.72 and the relative viability (LC-2-ad; first compound 0.1 µM) was 0.798. For the same molecule, the relative viability (LC-2-ad; first compound 0.3162 µM) was 0.647, the relative viability (LC-2-ad; first compound 1 µM) was 0.741 and the relative viability (ABC-1; first compound 0.01 µM) was 1.36. It also gave a relative viability (ABC-1; first compound 0.03162 µM) of 1.58, a relative viability (ABC-1; first compound 0.1 µM) of 1.31 and a relative viability (ABC-1; first compound 0.3162 µM) of 1.17. The relative viability (ABC-1; first compound 1 µM) was 1.02, the relative viability (NCI-H838; first compound 0.01 µM) was 0.752 and the relative viability (NCI-H838; first compound 0.03162 µM) was 0.716. It also gave a relative viability (NCI-H838; first compound 0.1 µM) of 0.686, a relative viability (NCI-H838; first compound 0.3162 µM) of 0.657 and a relative viability (NCI-H838; first compound 1 µM) of 0.698. For the same molecule, the relative viability (SK-LU-1; first compound 0.01 µM) was 0.79, the relative viability (SK-LU-1; first compound 0.03162 µM) was 0.707 and the relative viability (SK-LU-1; first compound 0.1 µM) was 0.751. It also gave a relative viability (SK-LU-1; first compound 0.3162 µM) of 0.778, a relative viability (SK-LU-1; first compound 1 µM) of 0.733 and a relative viability (HOP-62; first compound 0.01 µM) of 0.554. The relative viability (HOP-62; first compound 0.03162 µM) was 0.775, the relative viability (HOP-62; first compound 0.1 µM) was 0.58 and the relative viability (HOP-62; first compound 0.3162 µM) was 0.605. The relative viability (HOP-62; first compound 1 µM) was 0.685, the relative viability (NCI-H1395; first compound 0.03162 µM) was 0.719 and the relative viability (NCI-H1395; first compound 0.1 µM) was 0.565. It also gave a relative viability (NCI-H1395; first compound 0.3162 µM) of 1.05, a relative viability (NCI-H1395; first compound 1 µM) of 0.635 and a relative viability (NCI-H2126; first compound 0.01 µM) of 0.84. The relative viability (NCI-H2126; first compound 0.03162 µM) was 0.751, the relative viability (NCI-H2126; first compound 0.1 µM) was 0.668 and the relative viability (NCI-H2126; first compound 0.3162 µM) was 0.734. It also gave a relative viability (NCI-H2126; first compound 1 µM) of 0.771, a relative viability (ChaGo-K-1; first compound 0.01 µM) of 0.69 and a relative viability (ChaGo-K-1; first compound 0.03162 µM) of 0.785. It also gave a relative viability (ChaGo-K-1; first compound 0.1 µM) of 0.578, a relative viability (ChaGo-K-1; first compound 0.3162 µM) of 0.813 and a relative viability (ChaGo-K-1; first compound 1 µM) of 0.789. For the same molecule, the relative viability (NCI-H1793; first compound 0.01 µM) was 0.771, the relative viability (NCI-H1793; first compound 0.03162 µM) was 0.612 and the relative viability (NCI-H1793; first compound 0.1 µM) was 0.672. For the same molecule, the relative viability (NCI-H1793; first compound 0.3162 µM) was 0.76, the relative viability (NCI-H1793; first compound 1 µM) was 0.658 and the relative viability (HCC-78; first compound 0.01 µM) was 0.428. For the same molecule, the relative viability (HCC-78; first compound 0.03162 µM) was 0.406, the relative viability (HCC-78; first compound 0.1 µM) was 0.44 and the relative viability (HCC-78; first compound 0.3162 µM) was 0.464. It also gave a relative viability (HCC-78; first compound 1 µM) of 0.48, a relative viability (EMC-BAC-2; first compound 0.01 µM) of 0.458 and a relative viability (EMC-BAC-2; first compound 0.03162 µM) of 0.512. It also gave a relative viability (EMC-BAC-2; first compound 0.1 µM) of 0.533, a relative viability (EMC-BAC-2; first compound 0.3162 µM) of 0.496 and a relative viability (EMC-BAC-2; first compound 1 µM) of 0.198. For the same molecule, the relative viability (HARA; first compound 0.01 µM) was 0.409, the relative viability (HARA; first compound 0.03162 µM) was 0.588 and the relative viability (HARA; first compound 0.1 µM) was 0.543. It also gave a relative viability (HARA; first compound 0.3162 µM) of 0.546, a relative viability (HARA; first compound 1 µM) of 0.46 and a relative viability (HCC-15; first compound 0.01 µM) of 0.839. The relative viability (HCC-15; first compound 0.03162 µM) was 0.775, the relative viability (HCC-15; first compound 0.1 µM) was 0.858 and the relative viability (HCC-15; first compound 0.3162 µM) was 0.765. It also gave a relative viability (HCC-15; first compound 1 µM) of 0.847, a relative viability (NCI-H2228; first compound 0.01 µM) of 0.669 and a relative viability (NCI-H2228; first compound 0.03162 µM) of 0.896. For the same molecule, the relative viability (NCI-H2228; first compound 0.1 µM) was 0.562, the relative viability (NCI-H2228; first compound 0.3162 µM) was 0.651 and the relative viability (NCI-H2228; first compound 1 µM) was 0.722.
